Reference: patent US11427552B2, “Heterocyclic compounds useful in the treatment of disease” (EPIGEN BIOSCIENCES, INC., priority 2013, dated 2022)
“And” between values parts separate entries of the source, which are not always exact repeats. Identical values can stand only once.

target: T1, LPA1R (Homo sapiens, UniProt Q92633); test: LPA1R Ca2+ flux functional assay (antagonist mode, FLIPR); type: cell-based; conditions: inhibition of LPA-stimulated Ca2+ flux, LPA at EC80, LPA1R expressing cells (Millipore); read-out: LPA1 R Antagonist Activity
T1 construct: host or cells: LPA1R expressing cells (Millipore, GPCR Profiler)
Experimental: Inhibition of LPA-stimulated Ca^2+ flux was used to assess compound potency using FLIPR technology in a 96 well plate format. The assay buffer used was a modified Hanks Balanced Salt Solution (HBSS) where HBSS was supplemented to contain 20 mM HEPES and 2.5 mM Probenecid at pH7.4 (Millipore, GPCR Profiler®). LPA1R expressing cells (Millipore) were plated and prepared 24 hours prior to assay of test articles. Ca^2+ ion flux was assessed from fluorescence of a Fluo-based No Wash Ca^2+ dye. Antagonist data are generated from plates with LPA concentrations sufficient to generate 80% efficacy [EC80]. Percentage inhibition was calculated from a reduction of efficacy according to concentration of compounds of Formula I-VI. For dose responses the inhibition data was used to calculate compound IC50. The agonist assay was conducted on a FLIPR^TETRA instrument where the test compound(s), vehicle controls, and reference agonist were added to the assay plate after a fluorescence baseline was established. The agonist assay was a total of 180 seconds and was used to assess each compound's ability to activate each GPCR assayed. Upon completion of the agonist assay, the assay plate was removed from the FLIPR^TETRA and incubated at 25° C. for seven (7) minutes. After the incubation period, the assay plate was placed back in the FLIPR^TETRA and the antagonist assay was initiated. Using EC80 potency values determined during the agonist assay, all pre-incubated sample compound wells were challenged with EC80 concentration of reference agonist after establishment of a fluorescence baseline. The antagonist assay was conducted using the same assay plate that was used for the agonist assay. The antagonist assay was conducted on a FLIPR^TETRA instrument where 9 vehicle controls and EC80 concentration of reference agonist were added to appropriate wells. The antagonist assay was a total of 180 seconds and was used to assess each compound's ability to inhibit each GPCR assayed. All assay plate data were subjected to appropriate baseline corrections. After baseline corrections were applied, maximum fluorescence values were exported and data processed to calculate percentage activation (relative to Emax reference agonist and vehicle control values), percentage inhibition (relative to EC80 and vehicle control values), and additional statistical values (i.e. Z′, percentage variation between replicate data values) to assess the quality of each plate. Where assay plate data were rejected, additional experiments were conducted. All dose response curves were generated using GraphPad Prism. The curves were fit by utilizing “Sigmoidal Dose Response (Variable Slope)” equation where the bottom parameter was fixed to “0.” Where appropriate, the top parameter was fixed to “100” to better predict potency values when a full curve was not generated by the concentrations assayed.

T1 sequence (Q92633 whole entry): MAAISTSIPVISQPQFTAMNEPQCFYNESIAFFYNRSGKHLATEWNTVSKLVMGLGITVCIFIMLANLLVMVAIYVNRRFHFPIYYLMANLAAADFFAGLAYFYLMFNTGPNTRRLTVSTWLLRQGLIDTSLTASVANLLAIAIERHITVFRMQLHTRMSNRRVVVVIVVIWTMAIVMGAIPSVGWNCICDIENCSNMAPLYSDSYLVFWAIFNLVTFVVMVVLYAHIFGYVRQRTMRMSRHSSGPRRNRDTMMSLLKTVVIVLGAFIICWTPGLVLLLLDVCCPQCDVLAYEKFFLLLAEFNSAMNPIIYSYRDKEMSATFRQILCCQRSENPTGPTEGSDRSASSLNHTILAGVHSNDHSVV

`Cc1c(NC(=O)O[C@H](C)c2ccccc2)c(-c2ccc(C(=O)N[C@H](Cc3ccc(F)c(F)c3)C(=O)O)cc2)nn1C` [Example 16, (R)-3-(3,4-difluorophenyl)-2-[[4-[1,5-dimethyl-4-((R)-1-phenylethoxycarbonyl-amino)pyrazol-3-yl]benzoyl]amino]propanoic Acid] and `Cc1noc(-c2ccc(C(=O)N[C@H](Cc3ccccc3)C(=O)O)cc2)c1NC(=O)O[C@@H](C)c1ccccc1` [Example 18, (R)-2-{4-[3-Methyl-4-((S)-1-phenyl-ethoxycarbonylamino)-isoxazol-5-yl]-benzoylamino}-3-phenyl-propionic Acid] cannot be ordered by IC50: > 50 µM for the first, > 50 µM for the second.

Compared with `Cc1noc(-c2ccc(C(=O)NC3(C(=O)O)CC3)cc2)c1NC(=O)OC(C)c1ccccc1Cl` (stereo not shown) [Example 1, 1-(4-{4-[1-(2-Chloro-phenyl)-ethoxycarbonylamino]-3-methyl-isoxazol-5-yl}-benzoylamino)-cyclopropanecarboxylic Acid], `Cc1noc(-c2ccc(C(=O)N[C@H](Cc3ccc(Br)cc3)C(=O)O)cc2)c1NC(=O)O[C@H](C)c1ccccc1Cl` [Example 25, (R)-3-(4-Bromo-phenyl)-2-(4-{4-[(R)-1-(2-chloro-phenyl)-ethoxycarbonylamino]-3-methyl-isoxazol-5-yl}-benzoylamino)-propionic Acid] is lower in IC50: 1 to 50 µM for the first, < 0.3 µM for the second.

First: Cc1noc(-c2ccc(C(=O)NC3(C(=O)O)Cc4ccccc4C3)cc2)c1NC(=O)OC(C)c1ccccc1Cl (stereo not shown) [Example 2, 2-(4-{4-[1-(2-Chloro-phenyl)-ethoxycarbonylamino]-3-methyl-isoxazol-5-yl}-benzoylamino)-indan-2-carboxylic Acid]
Second: Cc1noc(-c2ccc(C(=O)N[C@H](Cc3ccc(C(F)(F)F)cc3)C(=O)O)cc2)c1NC(=O)O[C@H](C)c1ccccc1Cl [Example 28, (R)-2-(4-{4-[(R)-1-(2-Chloro-phenyl)-ethoxycarbonylamino]-3-methyl-isoxazol-5-yl}-benzoylamino)-3-(4-trifluoromethyl-phenyl)-propionic Acid]
The IC50 of the first is higher: 1 to 50 µM for the first, < 0.3 µM for the second. The second is the more potent here.

`Cc1nn(C)c(-c2ccc(C(=O)N[C@H](Cc3ccc(Br)cc3)C(=O)O)cc2)c1NC(=O)O[C@H](C)c1ccccc1` [Example 11, (R)-3-(4-bromophenyl)-2-[[4-[2,5-dimethyl-4-((R)-1-phenylethoxycarbonyl-amino)pyrazol-3-yl]benzoyl]amino]propanoic Acid] and `Cc1nn(C)c(-c2ccc(C(=O)N[C@H](Cc3ccc(F)c(F)c3)C(=O)O)cc2)c1NC(=O)O[C@H](C)c1ccccc1` [Example 15, (R)-3-(3,4-difluorophenyl)-2-[[4-[2,5-dimethyl-4-((R)-1-phenylethoxycarbonyl-amino)pyrazol-3-yl]benzoyl]amino]propanoic Acid] cannot be ordered by IC50: > 50 µM for the first, > 50 µM for the second.

`Cc1noc(-c2ccc(CN[C@H](Cc3ccccc3F)C(=O)O)cc2)c1NC(=O)O[C@H](C)c1ccccc1` [Example 32, (R)-3-(2-Fluoro-phenyl)-2-{4-[3-methyl-4-((R)-1-phenyl-ethoxycarbonylamino)-isoxazol-5-yl]-benzylamino}-propionic Acid] and `C[C@@H](OC(=O)Nc1c(F)cnn1-c1ccc(-c2ccc(C3(C(=O)O)CC3)c(F)c2)cc1)c1ccccc1Cl` [Example 49, (R)-1-(4′-{5-[1-(2-Chloro-phenyl)-ethoxycarbonylamino]-4-fluoro-pyrazol-1-yl}-3-fluoro-biphenyl-4-yl)-cyclopropanecarboxylic Acid] cannot be ordered by IC50: < 0.3 µM for the first, < 0.3 µM for the second.

Going from `Cc1nn(C)c(-c2ccc(C(=O)N[C@H](Cc3ccc(Cl)cc3)C(=O)O)cc2)c1NC(=O)O[C@H](C)c1ccccc1` [Example 13, (R)-3-(4-chlorophenyl)-2-[[4-[2,5-dimethyl-4-((R)-1-phenylethoxycarbonyl-amino)pyrazol-3-yl]benzoyl]amino]propanoic Acid] to `Cc1noc(-c2ccc(CN[C@H](Cc3ccccc3)C(=O)O)cc2)c1NC(=O)O[C@H](C)c1ccccc1Cl` [Example 37, (R)-2-(4-{4-[(R)-1-(2-Chloro-phenyl)-ethoxycarbonylamino]-3-methyl-isoxazol-5-yl}-benzylamino)-3-phenyl-propionic Acid], the IC50 falls from > 50 µM to < 0.3 µM. The second is the more potent here.

Going from `Cc1noc(-c2ccc(C(=O)N[C@@H](Cc3ccccc3)C(=O)O)cc2)c1NC(=O)O[C@H](C)c1ccccc1` [Example 6, 2(S)-[[4-[3-methyl-4-((R)-1-phenylethoxycarbonylamino)isoxazol-5-yl]benzoyl]amino]-3-phenyl-propanoic Acid] to `Cc1noc(-c2ccc(C(=O)N[C@H](Cc3ccccc3F)C(=O)O)cc2)c1NC(=O)O[C@H](C)c1ccccc1Cl` [Example 26, (R)-2-(4-{4-[(R)-1-(2-Chloro-phenyl)-ethoxycarbonylamino]-3-methyl-isoxazol-5-yl}-benzoylamino)-3-(2-fluoro-phenyl)-propionic Acid], the IC50 falls from > 50 µM to < 0.3 µM.

First: CC(OC(=O)Nc1c(C#N)cnn1-c1ccc(-c2ccc(CC(=O)O)cc2)cc1)c1ccccc1Cl (stereo not shown) [Example 46, 2-[4-[4-[5-[1-(2-chlorophenyl)ethoxycarbonylamino]-4-cyano-pyrazol-1-yl]phenyl]phenyl]acetic Acid]
Second: Cc1noc(-c2ccc(CN[C@H](Cc3ccccc3)C(=O)O)cc2)c1NC(=O)O[C@H](C)c1ccccc1 [Example 31, (R)-2-{4-[3-Methyl-4-((R)-1-phenyl-ethoxycarbonylamino)-isoxazol-5-yl]-benzylamino}-3-phenyl-propionic Acid]
The IC50 of the first is higher: 1 to 50 µM for the first, < 0.3 µM for the second. The second is the more potent here.

First: Cc1noc(-c2ccc(CN[C@H](Cc3ccc(C(F)(F)F)cc3)C(=O)O)cc2)c1NC(=O)O[C@H](C)c1ccccc1Cl [Example 39, (R)-2-(4-{4-[(R)-1-(2-Chloro-phenyl)-ethoxycarbonylamino]-3-methyl-isoxazol-5-yl}-benzylamino)-3-(4-trifluoromethyl-phenyl)-propionic Acid]
Second: Cc1c(NC(=O)O[C@H](C)c2ccccc2)c(-c2ccc(C(=O)N[C@H](Cc3ccc(F)cc3)C(=O)O)cc2)nn1C [Example 10, (R)-2-[[4-[1,5-dimethyl-4-((R)-1-phenylethoxycarbonylamino)pyrazol-3-yl]benzoyl]amino]-3-(4-fluorophenyl)propanoic acid]
The IC50 of the first is lower: < 0.3 µM for the first, > 50 µM for the second. The first is the more potent here.

Compared with `Cc1noc(-c2ccc(C(=O)NC(Cc3ccccc3)C(=O)O)cc2)c1NC(=O)OC(C)c1ccccc1Cl` [Example 4, 2-(R)-(4-{4-[(R,S)-1-(2-Chloro-phenyl)-ethoxycarbonylamino]-3-methyl-isoxazol-5-yl}-benzoylamino) Phenyl Propanoic Acid], `Cc1noc(-c2ccc(COC(CC3CC3)C(=O)O)cc2)c1NC(=O)O[C@H](C)c1ccccc1` (mixture of isomers) [Example 44, (RS)-3-Cyclopropyl-2-{4-[3-methyl-4-((R)-1-phenyl-ethoxycarbonylamino)-isoxazol-5-yl]-benzyloxy}-propionic Acid] is lower in IC50: 0.3 to 1 µM for the first, < 0.3 µM for the second.

First: Cc1noc(-c2ccc(CN[C@H](CC3CC3)C(=O)O)cc2)c1NC(=O)O[C@H](C)c1ccccc1Cl [Example 41, (R)-2-(4-{4-[(R)-1-(2-Chloro-phenyl)-ethoxycarbonylamino]-3-methyl-isoxazol-5-yl}-benzylamino)-3-cyclopropyl-propionic Acid]
Second: Cc1noc(-c2ccc(COC(Cc3ccccc3)C(=O)O)cc2)c1NC(=O)O[C@H](C)c1ccccc1 (stereo partly drawn) [Example 43, 2-{4-[3-Methyl-4-((R)-1-phenyl-ethoxycarbonylamino)-isoxazol-5-yl]-benzyloxy}-3-phenyl-propionic Acid]
The IC50 of the first is lower: < 0.3 µM for the first, 0.3 to 1 µM for the second.

Going from `Cc1noc(-c2ccc(CN[C@H](Cc3ccc(C(F)(F)F)cc3)C(=O)O)cc2)c1NC(=O)O[C@H](C)c1ccccc1` [Example 33, (R)-2-{4-[3-Methyl-4-((R)-1-phenyl-ethoxycarbonylamino)-isoxazol-5-yl]-benzylamino}-3-(4-trifluoromethyl-phenyl)-propionic Acid] to “(R)-3-(4-bromophenyl)-2-[[4-[1,5-dimethyl-4-((R)-1-phenylethoxycarbonyl-amino)pyrazol-3-yl]benzoyl]amino]propanoic acid [Example 12]”, the IC50 rises from < 0.3 µM to > 50 µM.

`Cc1cnn(-c2ccc(C(=O)N[C@H](Cc3ccccc3)C(=O)O)cc2)c1NC(=O)O[C@H](C)c1ccccc1Cl` [Example 30, (R)-2-(4-{5-[(R)-1-(2-Chloro-phenyl)-ethoxycarbonylamino]-4-methyl-pyrazol-1-yl}-benzoylamino)-3-phenyl-propionic Acid] was tested, and the IC50 was > 50 µM and 1 to 50 µM.
